Results published in US20080242600A1, “Backbone Cyclized Melanocortin Stimulating Hormone (Alpha Msh) Analogs” (priority 2005, published 2008).
Entries after “also recorded” stand apart in the source; their conditions may differ. *1 amine or outer side, *2 acyl side, *3 side chain or, on linkers, in order; H or OH if unused. Where a SMILES comes first, the peptide text is derived from it. Bridges are numbered along the chain shown (N, C = ends). [ ]: non-standard residue; d: D form. NGly(3-aminopropyl) = O=C(CN(CCCN[*:3])[*:1])[*:2]; N(2-Aminoethyl)Gly = O=C(CN(CCN[*:3])[*:1])[*:2]; Heptanedioyl = O=C(CCCCCC(=O)[*:2])[*:1]; Adipoyl = O=C(CCCCC(=O)[*:2])[*:1]; Glutaryl = O=C(CCCC(=O)[*:2])[*:1]; Suc = O=C(CCC(=O)[*:2])[*:1]; Nlys = NCCCCNCC(=O)O

Key:
[1] = biological target: T1, MC4R (Homo sapiens, UniProt P32245); assay: Determination of receptor activation (cAMP accumulation assay); format: cell-based
T1 construct: expressed in transfected cells; host or cells: CHO cells
Experimental: cAMP Accumulation Assays: 48 h after transfection, CHO cells are washed once with PBS and then detached from the plate with PBS containing 0.02% EDTA (Sigma). The detached cells are harvested by centrifugation and resuspended in Hanks' balanced salt solution (Invitrogen) containing 0.5 mM IBMX, 2 mM HEPES, pH 7.5 (IBMX buffer). After incubation at 37° C. for 15 min to allow for IBMX uptake, 0.4 ml of cell suspension (5×10^5 cells/ml) is added to 0.1 ml of IBMX buffer containing various concentrations of agonists or 10 μM forskolin. The cells are subsequently incubated at 37° C. for 15 min to allow for cAMP accumulation. The activity is terminated by adding 0.5 ml of 5% trichloroacetic acid, and cAMP released from lysed cells is assayed by the cAMP ^125I scintillation proximity assay system (Amersham Biosciences).
EC50 values are calculated with a 95% confidence interval using GraphPad Prism software (using nonlinear regression analysis fitted with a sigmoidal dose-response curve with variable slope).

[2] = Assessment of intestinal metabolic stability in brush border membrane vesicles; format: in vitro ADME; details: rat intestinal brush border membranes
Experimental: Brush-border membrane vesicles (BBMVs) were prepared from combined duodenum, jejunum, and upper ileum by a Ca++precipitation method (PEERCE). The intestines of 5 male Wistar rats, 200-250 g, were rinsed with ice cold 0.9% Nacl and freed of mucos, the mucosa was scraped off the luminal surface with glass slides and put immediately into buffer containing […] Kcl and 10 mM Tris-HCl (pH 7.5, 4° C.) and the mixture homogenated by Ploytron (Polytron PT 1200, Kinematica AG, Switzerland). CaCl was added to a final concentration of 10 mM. The homogenate was left shaking for 30 min at 4° C. and afterwards centrifuged at 10,000 g for 10 min (centrifuge) the supernatant was then centrifuged at 48,000 g for 30 min an additional two purification steps were undertaken by suspending the pellet in 300 mM mannitol and 10 mM Hepes/Tris (pH 7.5) and centrifuge 24,000 g/hr. Purification of brush border membranes was assayed using the brush border membrane enzyme markers GGT, LAP and alkaline phosphatase. During the course of these studies, enrichment in brush border membrane enzymes varied between 13- and 18-fold.

[3] = biological target: T1, MC4R; assay: Receptor binding assay (IC50 on the MC4R)
Description: The analogs can be further tested in vitro for their influence on cyclic adenosine monophosphate (cAMP) levels. Intestinal permeability and metabolic stability of the analogs can be tested in vivo. The analogs can be further tested in vivo in preclinical models in order to identify the optimal mode of administration and proper dose, and to verify the safety and the efficacy of these new potential therapeutic drugs.
Transfected CHO cells are washed with binding buffer 8 and distributed into 96-well plates (approximately 40,000 cells/well). […] NDP-α-MSH and appropriate concentrations of an unlabelled ligand. After incubation, the cells are washed with 0.2 ml of ice-cold binding buffer and detached from the plates with 0.2 ml of 0.1 N NaOH. Radioactivity is counted (Wallac, Wizard automatic gamma counter) and data analyzed with a software package for radioligand binding analyses (Wan System, Umea, Sweden) by fitting it to formulas derived from the law of mass-action by the method generally referred to as computer modeling. The binding assays are performed in duplicate wells.

[4] = system: ICR:Hsd (CD-1) male mice; assay: Effect of orally administered BBC-1 on food consumption in normal mice; format: in vivo
Experimental: ICR:Hsd (CD-1) male mice, 7-8 weeks old, were raised in separate cages and maintained at 23±1° C. on a 12-hr light, 12-hr dark cycle (0700-1900 hr light). Mice were allowed ad libitum access to water and standard chow pellets. Upon arrival mice were allowed to acclimate for 1 week. Following fasting for 16 hours, the animals (n=8) were subjected to a single oral gavage (PO, 5 ml/kg) of BBC1 (100 μg/ml, 1000 μg/ml) or vehicle (water). Immediately after administration, fixed food doses were added and re-weighed after 1, 2, 3, 4, 5, 8 and 24 hours.

T1 sequence (P32245 whole entry, species assumed): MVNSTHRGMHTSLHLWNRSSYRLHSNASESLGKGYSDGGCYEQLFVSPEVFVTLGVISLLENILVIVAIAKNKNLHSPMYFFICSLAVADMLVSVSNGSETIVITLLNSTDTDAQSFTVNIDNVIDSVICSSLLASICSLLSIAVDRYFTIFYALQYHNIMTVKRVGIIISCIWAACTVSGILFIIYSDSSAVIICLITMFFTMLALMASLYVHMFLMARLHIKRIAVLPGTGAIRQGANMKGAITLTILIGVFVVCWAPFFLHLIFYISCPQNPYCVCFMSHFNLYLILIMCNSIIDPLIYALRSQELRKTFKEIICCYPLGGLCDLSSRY

SMILES | IC50 [3] | other results
N=C(N)NCCC[C@@H]1NC(=O)[C@@H](Cc2ccccc2)NC(=O)[C@H](Cc2ccccc2)NC(=O)CCC(=O)NCCN(CC(N)=O)C(=O)[C@H](Cc2c[nH]c3ccccc23)NC1=O [BBC1] (F[dF]RW[N(2-Aminoethyl)Gly]-NH2; linker N-5 via Suc) | 90 nM | MC4R functionality and selectivity [1]: highly functional and selective; also recorded: specific activation of MC4R; intestinal metabolic stability [2]: high and enzymatically stable; food consumption (in words) ([4]; single oral administration, 24 hours): decreased food consumption; reduction of food consumption ([4]; single oral administration, over a period of 24 hr): ~40%; clinical signs post administration ([4]; single oral gavage, following 24 hours): did not show any special clinical signs
N=C(N)NCCC[C@@H]1NC(=O)[C@@H](Cc2ccccc2)NC(=O)[C@H](Cc2ccccc2)NC(=O)CCCC(=O)NCCCN(CC(N)=O)C(=O)[C@H](Cc2c[nH]c3ccccc23)NC1=O [BBC6] (F[dF]RW[NGly(3-aminopropyl)]-NH2; linker N-5 via Glutaryl) | 110 nM | 
N=C(N)NCCC[C@@H]1NC(=O)[C@@H](Cc2ccccc2)NC(=O)[C@H](Cc2ccccc2)NC(=O)CCC(=O)NCCCN(CC(N)=O)C(=O)[C@H](Cc2c[nH]c3ccccc23)NC1=O [BBC8] (F[dF]RW[NGly(3-aminopropyl)]-NH2; linker N-5 via Suc) | 60 nM | 
N=C(N)NCCC[C@@H]1NC(=O)[C@@H](Cc2ccccc2)NC(=O)[C@H](Cc2ccccc2)NC(=O)CCCCCC(=O)NCCN(CC(N)=O)C(=O)[C@H](Cc2c[nH]c3ccccc23)NC1=O [BBC9] (F[dF]RW[N(2-Aminoethyl)Gly]-NH2; linker N-5 via Heptanedioyl) | 100 nM | 
N=C(N)NCCC[C@@H]1NC(=O)[C@@H](Cc2ccccc2)NC(=O)[C@H](Cc2ccccc2)NC(=O)CCCC(=O)NCCCCN(CC(N)=O)C(=O)[C@H](Cc2c[nH]c3ccccc23)NC1=O [BBC12] (F[dF]RW[Nlys]-NH2; linker N-5 via Glutaryl) | 100 nM | 
N=C(N)NCCC[C@@H]1NC(=O)[C@@H](Cc2ccccc2)NC(=O)[C@H](Cc2ccccc2)NC(=O)CCCCC(=O)NCCCCN(CC(N)=O)C(=O)[C@H](Cc2c[nH]c3ccccc23)NC1=O [BBC13] (F[dF]RW[Nlys]-NH2; linker N-5 via Adipoyl) | 100 nM | 

The next lines start with results.

IC50 [3] | SMILES | other results
100 nM | N=C(N)NCCC[C@@H]1NC(=O)[C@@H](Cc2ccccc2)NC(=O)[C@H](Cc2ccccc2)NC(=O)CCCCCC(=O)NCCCN(CC(N)=O)C(=O)[C@H](Cc2c[nH]c3ccccc23)NC1=O [BBC7] (F[dF]RW[NGly(3-aminopropyl)]-NH2; linker N-5 via Heptanedioyl) | 
120 nM | N=C(N)NCCC[C@@H]1NC(=O)[C@@H](Cc2ccccc2)NC(=O)[C@H](Cc2ccccc2)NC(=O)CCCCC(=O)NCCN(CC(N)=O)C(=O)[C@H](Cc2c[nH]c3ccccc23)NC1=O [BBC10] (F[dF]RW[N(2-Aminoethyl)Gly]-NH2; linker N-5 via Adipoyl) | 
60 nM | N=C(N)NCCC[C@@H]1NC(=O)[C@@H](Cc2ccccc2)NC(=O)[C@H](Cc2ccccc2)NC(=O)CCCCC(=O)NCCCN(CC(N)=O)C(=O)[C@H](Cc2c[nH]c3ccccc23)NC1=O [BBC15] (F[dF]RW[NGly(3-aminopropyl)]-NH2; linker N-5 via Adipoyl) | 
